Measurements reported in patent US20250333424A1, “ANTIVIRAL COMPOUNDS” (Gilead Sciences, Inc., priority 2024, published 2025).

Tests used:
[1] = tested on: CD4 cells, isolated from healthy donor PMBCs, infected with HIV VSV-G pseudotyped GFP-GAG reporter virus; assay: tissue or blood; format: cell-based; conditions: Homo sapiens, 72 h
[2] = tested on: monocytic THP1 cells infected with HIV VSV-G pseudotyped GFP-NEF reporter virus; assay: cells; format: cell-based; conditions: Human immunodeficiency virus 1, THP-1, 24 h

Row | Compound | EC50 [1] | EC50 [2]
1 | Cc1cc(/C=C/C#N)cc(C)c1Oc1nc(NC23CC(C#N)(C2)C3)nc2[nH]ncc12 [Compound 10, (E)-3-((4-(4-(2-cyanovinyl)-2,6-dimethylphenoxy)-1H-pyrazolo[3,4-d]pyrimidin-6-yl)amino)bicyclo[1.1.1]pentane-1-carbonitrile] | 54.7 nM | 65.9 nM
2 | Cc1nc2nc(NC34CC(C#N)(C3)C4)nc(Oc3c(C)cc(/C=C/C#N)cc3C)c2[nH]1 [Compound 14, (E)-3-((6-(4-(2-cyanovinyl)-2,6-dimethylphenoxy)-8-methyl-7H-purin-2-yl)amino)bicyclo[1.1.1]pentane-1-carbonitrile] | 84.2 nM | 81.3 nM
3 | Cc1cc(/C=C/C#N)cc(C)c1Nc1nc(NC23CC(C#N)(C2)C3)nc2scnc12 [Compound 23, (E)-3-((7-((4-(2-cyanovinyl)-2,6-dimethylphenyl)amino)thiazolo[5,4-d]pyrimidin-5-yl)amino)bicyclo[1.1.1]pentane-1-carbonitrile] | 17 nM | 31.7 nM
4 | Cc1cc(/C=C/C#N)cc(C)c1Oc1nc(NC23CC(C#N)(C2)C3)nc2[nH]c(=O)[nH]c12 [Compound 27, (E)-3-((6-(4-(2-cyanovinyl)-2,6-dimethylphenoxy)-8-oxo-8,9-dihydro-7H-purin-2-yl)amino)bicyclo[1.1.1]pentane-1-carbonitrile] | 99.4 nM | 68.3 nM
5 | Cc1cc(/C=C/C#N)cc(C)c1Oc1nc(NC23CC(C#N)(C2)C3)nc2nc(C(C)(F)F)n(C)c12 [Compound 41, (E)-3-((6-(4-(2-cyanovinyl)-2,6-dimethylphenoxy)-8-(1,1-difluoroethyl)-7-methyl-7H-purin-2-yl)amino)bicyclo[1.1.1]pentane-1-carbonitrile] | 77.6 nM | 
6 | COc1ccc(Cn2cnc3c(Oc4c(C)cc(/C=C/C#N)cc4C)nc(NC45CC(C#N)(C4)C5)nc32)cc1 [Compound 42, (E)-3-((6-(4-(2-cyanovinyl)-2,6-dimethylphenoxy)-9-(4-methoxybenzyl)-9H-purin-2-yl)amino)bicyclo[1.1.1]pentane-1-carbonitrile] | 894 nM | 518 nM
7 | COc1ccc(Cn2cnc3nc(NC45CC(C#N)(C4)C5)nc(Oc4c(C)cc(/C=C/C#N)cc4C)c32)cc1 [Compound 43, (E)-3-((6-(4-(2-cyanovinyl)-2,6-dimethylphenoxy)-7-(4-methoxybenzyl)-7H-purin-2-yl)amino)bicyclo[1.1.1]pentane-1-carbonitrile] | 87.7 nM | 90.5 nM
8 | Cc1cc(/C=C/C#N)cc(C)c1Oc1nc(NC23CC(C#N)(C2)C3)nc2nc[nH]c12 [Compound 44, (E)-3-((6-(4-(2-cyanovinyl)-2,6-dimethylphenoxy)-7H-purin-2-yl)amino)bicyclo[1.1.1]pentane-1-carbonitrile] | 109 nM | 
9 | Cc1cc(/C=C/C#N)cc(C)c1Oc1nc(NC23CC(C#N)(C2)C3)nc2nc(C3CC3)[nH]c12 [Compound 49, (E)-3-((6-(4-(2-cyanovinyl)-2,6-dimethylphenoxy)-8-cyclopropyl-7H-purin-2-yl)amino)bicyclo[1.1.1]pentane-1-carbonitrile] | 166 nM | 110 nM
10 | Cc1cc(/C=C/C#N)cc(C)c1Oc1nc(NC23CC(C#N)(C2)C3)nc2nc(C3CCC3)[nH]c12 [Compound 50, (E)-3-((6-(4-(2-cyanovinyl)-2,6-dimethylphenoxy)-8-cyclobutyl-7H-purin-2-yl)amino)bicyclo[1.1.1]pentane-1-carbonitrile] | 151 nM | 166 nM
11 | Cc1nc2c(Nc3c(C)cc(/C=C/C#N)cc3C)nc(NC34CC(C#N)(C3)C4)nc2s1 [Compound 55, (E)-3-((7-((4-(2-cyanovinyl)-2,6-dimethylphenyl)amino)-2-methylthiazolo[5,4-d]pyrimidin-5-yl)amino)bicyclo[1.1.1]pentane-1-carbonitrile] | 25.9 nM | 130 nM
12 | Cc1cc(/C=C/C#N)cc(C)c1Oc1nc(NC23CC(C#N)(C2)C3)nc2scnc12 [Compound 56, (E)-3-((7-(4-(2-cyanovinyl)-2,6-dimethylphenoxy)thiazolo[5,4-d]pyrimidin-5-yl)amino)bicyclo[1.1.1]pentane-1-carbonitrile] | 96.6 nM | 142 nM
13 | Cc1nc2nc(NC34CC(C#N)(C3)C4)nc(Oc3c(F)cc(/C=C/C#N)cc3F)c2[nH]1 [Compound 58, (E)-3-((6-(4-(2-cyanovinyl)-2,6-difluorophenoxy)-8-methyl-7H-purin-2-yl)amino)bicyclo[1.1.1]pentane-1-carbonitrile] | 430 nM | 
14 | Cc1nc2nc(NC34CC(C#N)(C3)C4)nc(Oc3c(Cl)cc(/C=C/C#N)cc3Cl)c2[nH]1 [Compound 59, (E)-3-((6-(2,6-dichloro-4-(2-cyanovinyl)phenoxy)-8-methyl-7H-purin-2-yl)amino)bicyclo[1.1.1]pentane-1-carbonitrile] | 336 nM | 
15 | Cc1cc(/C=C/C#N)cc(C)c1Oc1nc(NC23CC(C#N)(C2)C3)nc2nc(C(C)(C)O)[nH]c12 [Compound 60, (E)-3-((6-(4-(2-cyanovinyl)-2,6-dimethylphenoxy)-8-(2-hydroxypropan-2-yl)-7H-purin-2-yl)amino)bicyclo[1.1.1]pentane-1-carbonitrile] | 175 nM | 373 nM
16 | Cc1cc(/C=C/C#N)cc(C)c1Oc1nc(NC23CC(C#N)(C2)C3)nc2ncsc12 [Compound 75, (E)-3-((7-(4-(2-cyanovinyl)-2,6-dimethylphenoxy)thiazolo[4,5-d]pyrimidin-5-yl)amino)bicyclo[1.1.1]pentane-1-carbonitrile] | 55 nM | 
17 | Cc1cc(/C=C/C#N)cc(C)c1Oc1nc(NC23CC(C#N)(C2)C3(F)F)nc2[nH]nc(C)c12 [Compound 77, (E)-3-((4-(4-(2-cyanovinyl)-2,6-dimethylphenoxy)-3-methyl-1H-pyrazolo[3,4-d]pyrimidin-6-yl)amino)-2,2-difluorobicyclo[1.1.1]pentane-1-carbonitrile] | 28.2 nM | 
18 | Cc1cc(/C=C/C#N)cc(C)c1Oc1nc(NC23CC(C#N)(C2)C3(F)F)nc2c1CCO2 [Compound 78, (E)-3-((4-(4-(2-cyanovinyl)-2,6-dimethylphenoxy)-5,6-dihydrofuro[2,3-d]pyrimidin-2-yl)amino)-2,2-difluorobicyclo[1.1.1]pentane-1-carbonitrile] | 12.1 nM | 
19 | Cc1cc(/C=C/C#N)cc(Cl)c1Oc1nc(NC23CC(C#N)(C2)C3)nc2[nH]nc(C)c12 [Compound 85, (E)-3-((4-(2-chloro-4-(2-cyanovinyl)-6-methylphenoxy)-3-methyl-1H-pyrazolo[3,4-d]pyrimidin-6-yl)amino)bicyclo[1.1.1]pentane-1-carbonitrile] | 20.9 nM | 
20 | CCn1cnc2nc(NC34CC(C#N)(C3)C4)nc(Oc3c(C)cc(/C=C/C#N)cc3C)c21 [Compound 114, (E)-3-((6-(4-(2-cyanovinyl)-2,6-dimethylphenoxy)-7-ethyl-7H-purin-2-yl)amino)bicyclo[1.1.1]pentane-1-carbonitrile] | 51.1 nM | 
21 | Cc1cc(/C=C/C#N)cc(C)c1Oc1nc(NC23CC(C#N)(C2)C3)nc2c1CSC2 [Compound 116, (E)-3-((4-(4-(2-cyanovinyl)-2,6-dimethylphenoxy)-5,7-dihydrothieno[3,4-d]pyrimidin-2-yl)amino)bicyclo[1.1.1]pentane-1-carbonitrile] | 63.3 nM | 
22 | Cc1cc(/C=C/C#N)cc(C)c1Oc1nc(NC23CC(C#N)(C2)C3)nc2c1COC2 [Compound 117] | 23.9 nM | 
23 | Cc1cc(/C=C/C#N)cc(C)c1Oc1nc(NC23CC(C#N)(C2)C3)nc2c1CCO2 [Compound 118, (E)-3-((4-(4-(2-cyanovinyl)-2,6-dimethylphenoxy)-5,6-dihydrofuro[2,3-d]pyrimidin-2-yl)amino)bicyclo[1.1.1]pentane-1-carbonitrile] | 80.4 nM | 
24 | COC(=O)N1Cc2nc(NC34CC(C#N)(C3)C4)nc(Oc3c(C)cc(/C=C/C#N)cc3C)c2C1 [Compound 151, (E)-methyl 2-((3-cyanobicyclo[1.1.1]pentan-1-yl)amino)-4-(4-(2-cyanovinyl)-2,6-dimethylphenoxy)-5H-pyrrolo[3,4-d]pyrimidine-6(7H)-carboxylate] | 76 nM | 
25 | Cc1cc(/C=C/C#N)cc(C)c1Oc1nc(NC23CC(C#N)(C2)C3)nc2c1C[N+](C)(C)C2 [Compound 152, (E)-2-((3-cyanobicyclo[1.1.1]pentan-1-yl)amino)-4-(4-(2-cyanovinyl)-2,6-dimethylphenoxy)-6,6-dimethyl-6,7-dihydro-5H-pyrrolo[3,4-d]pyrimidin-6-ium] | 3360 nM | 
26 | Cc1cc(/C=C/C#N)cc(C)c1Oc1nc(NC23CC(CC(F)F)(C2)C3)nc2nc[nH]c12 [Compound 155, (E)-3-(4-((2-((3-(2,2-difluoroethyl)bicyclo[1.1.1]pentan-1-yl)amino)-7H-purin-6-yl)oxy)-3,5-dimethylphenyl)acrylonitrile] | 419 nM | 
27 | C/C(C#N)=C\c1cc(C)c(Oc2nc(NC34CC(C#N)(C3)C4)nc3nn(C)cc23)c(C)c1 [Example 258, (E)-3-((4-(4-(2-cyanoprop-1-en-1-yl)-2,6-dimethylphenoxy)-2-methyl-2H-pyrazolo[3,4-d]pyrimidin-6-yl)amino)bicyclo[1.1.1]pentane-1-carbonitrile] |  | 178 nM
28 | Cc1cc(/C=C/C#N)cc(C)c1Oc1nc(NC23CC(C#N)(C2)C3)nc2nn3c(c12)COCC3 [Example 259, (E)-3-((4-(4-(2-cyanovinyl)-2,6-dimethylphenoxy)-7,8-dihydro-5H-pyrimido[4′,5′:3,4]pyrazolo[5,1-c][1,4]oxazin-2-yl)amino)bicyclo[1.1.1]pentane-1-carbonitrile] |  | 23.6 nM
29 | Cc1cc(/C=C/C#N)cc(C)c1Oc1nc(NC23CC(C#N)(C2)C3)nc2c1C(C)OC2 (stereo not shown) [Example 263, (E)-3-((4-(4-(2-cyanovinyl)-2,6-dimethylphenoxy)-5-methyl-5,7-dihydrofuro[3,4-d]pyrimidin-2-yl)amino)bicyclo[1.1.1]pentane-1-carbonitrile] |  | 60.4 nM
